Data reported in patent US5677470A, “Baccatin derivatives and processes for preparing the same” (Tanabe Seiyaku Co., Ltd., priority 1994, dated 1997).
In brackets after ≈: the same amount, converted by molar mass.

What was measured:
[1] = solubility in physiological saline; assay type: physicochemical
Procedure: Solubility: 5 mg/ml (physiological saline)
In the tables, solubility means a solubility in physiological saline.

BDF1 mice = assay: toxicity, intraperitoneal administration to BDF1 mice, 20 days observation; assay type: in vivo, mouse; details: 25 mg/kg, 4 times once a day, observed for 20 days
Description: Further, the taxol derivative of the present invention or a pharmaceutically acceptable salt thereof has low toxicity and high water solubility.

[2] = cited from earlier work
[3] = tested on: ovary cancer and cancers of thymus and others; details: cited from earlier work
various kinds of cancers = details: cited from earlier work
[4] = methanesulfonate, medium not printed at the place

Row | SMILES | solubility ([1]; physiological saline) [µg/mL] | other results
1 | CCOC(=O)[C@@H](N)CC(=O)OCC(=O)O[C@@H](C(=O)O[C@H]1C[C@@]2(O)[C@@H](OC(=O)c3ccccc3)[C@@H]3[C@]4(OC(C)=O)CO[C@@H]4C[C@H](O)[C@@]3(C)C(=O)[C@H](O)C(=C1C)C2(C)C)[C@@H](NC(=O)OC(C)(C)C)c1ccc(F)cc1F [Example 52] | 1000 (≈ 957 µM) | –
2 | CCOC(=O)[C@@H](N)CC(=O)OCC(=O)O[C@@H](C(=O)O[C@H]1C[C@@]2(O)[C@@H](OC(=O)c3ccccc3)[C@@H]3[C@]4(OC(C)=O)CO[C@@H]4C[C@H](O)[C@@]3(C)C(=O)[C@H](O)C(=C1C)C2(C)C)[C@@H](NC(=O)OCC(F)(F)F)c1ccccc1 [Example 46] | 5000 (≈ 4830 µM) | –
3 | CCOC(=O)[C@@H](N)CC(=O)OCC(=O)O[C@@H](C(=O)O[C@H]1C[C@@]2(O)[C@@H](OC(=O)c3ccccc3)[C@@H]3[C@]4(OC(C)=O)CO[C@@H]4C[C@H](O)[C@@]3(C)C(=O)[C@H](O)C(=C1C)C2(C)C)[C@@H](NC(=O)OC(C)(C)C)c1ccccc1 [Example 32, 4α-acetoxy-13α-{(2R,3S)-3-tert-butoxycarbonylamino-2-[((3S)-3-amino-3-ethoxycarbonylpropionyloxy)acetoxy]-3-phenylpropionyloxy}-2α-benzoyloxy-5β,20-epoxy-1β,7β,10β-trihydroxytax-11-en-9-one.methanesulfonate] | 5000 | solubility [1, 4]: 5000 µg/mL; death (BDF1 mice): no case of death was observed
4 | CCOC(=O)N[C@@H](c1ccccc1)[C@@H](OC(=O)COC(=O)C[C@H](N)C(=O)OCC)C(=O)O[C@H]1C[C@@]2(O)[C@@H](OC(=O)c3ccccc3)[C@@H]3[C@]4(OC(C)=O)CO[C@@H]4C[C@H](O)[C@@]3(C)C(=O)[C@H](O)C(=C1C)C2(C)C [Example 44] | 4000 (≈ 4080 µM) | –
5 | CC(=O)O[C@H]1C(=O)[C@@]2(C)[C@H]([C@H](OC(=O)c3ccccc3)[C@]3(O)C[C@H](OC(=O)[C@H](O)[C@@H](NC(=O)c4ccccc4)c4ccccc4)C(C)=C1C3(C)C)[C@]1(OC(C)=O)CO[C@@H]1C[C@@H]2O [taxol, 4α,10β-diacetoxy-2α-benzoyloxy-5β,20-epoxy-1β,7β-dihydroxy-13α-[(2R,3S)-3-phenyl-3-benzoylamino-2-hydroxypropionyloxy]-tax-11-en-9-one] | – | water-solubility [2]: ≤ 4 µg/mL; antitumor activities [3]: excellent antitumor activities; anti-tumor activity (various kinds of cancers): excellent anti-tumor activity
6 | CCOC(=O)[C@@H](N)CC(=O)OCC(=O)O[C@@H](C(=O)O[C@H]1C[C@@]2(O)[C@@H](OC(=O)c3ccccc3)[C@@H]3[C@]4(OC(C)=O)CO[C@@H]4C[C@H](O)[C@@]3(C)C(=O)[C@H](O)C(=C1C)C2(C)C)[C@@H](NC(=O)OCC1CC1)c1ccccc1 [Example 49] | 5000 (≈ 4960 µM) | –
7 | CCOC(=O)[C@@H](N)CC(=O)OCC(=O)O[C@@H](C(=O)O[C@H]1C[C@@]2(O)[C@@H](OC(=O)c3ccccc3)[C@@H]3[C@]4(OC(C)=O)CO[C@@H]4C[C@H](O)[C@@]3(C)C(=O)[C@H](O)C(=C1C)C2(C)C)[C@@H](NC(=O)CCCCCl)c1ccccc1 [Example 42] | 5000 (≈ 4870 µM) | –
8 | CC(=O)O[C@@]12CO[C@@H]1C[C@H](O)[C@@]1(C)C(=O)[C@H](O)C3=C(C)[C@@H](OC(=O)[C@H](OC(=O)COC(=O)[C@@H]4CCCN4)[C@@H](NC(=O)OC(C)(C)C)c4ccccc4)C[C@@](O)([C@@H](OC(=O)c4ccccc4)[C@H]21)C3(C)C [Example 33] | 1400 (≈ 1450 µM) | –
9 | CCOC(=O)[C@@H](N)CC(=O)OCC(=O)O[C@@H](C(=O)O[C@H]1C[C@@]2(O)[C@@H](OC(=O)c3ccccc3)[C@@H]3[C@]4(OC(C)=O)CO[C@@H]4C[C@H](O)[C@@]3(C)C(=O)[C@H](O)C(=C1C)C2(C)C)[C@@H](NC(=O)OC(C)(C)C)c1ccc(OC)cc1 [Example 56] | 15000 (≈ 14400 µM) | –
10 | CC(=O)O[C@@]12CO[C@@H]1C[C@H](O)[C@@]1(C)C(=O)[C@H](O)C3=C(C)[C@@H](OC(=O)[C@H](OC(=O)COC(=O)[C@H](C)N)[C@@H](NC(=O)OC(C)(C)C)c4ccccc4)C[C@@](O)([C@@H](OC(=O)c4ccccc4)[C@H]21)C3(C)C [Example 36] | 2000 (≈ 2130 µM) | –
11 | CCOC(=O)[C@@H](N)CC(=O)OCCCCC(=O)O[C@@H](C(=O)O[C@H]1C[C@@]2(O)[C@@H](OC(=O)c3ccccc3)[C@@H]3[C@]4(OC(C)=O)CO[C@@H]4C[C@H](O)[C@@]3(C)C(=O)[C@H](O)C(=C1C)C2(C)C)[C@@H](NC(=O)OC(C)(C)C)c1ccccc1 [Example 37] | 1000 (≈ 951 µM) | –
12 | CCOC(=O)[C@@H](N)CC(=O)OCC(=O)O[C@@H](C(=O)O[C@H]1C[C@@]2(O)[C@@H](OC(=O)c3ccccc3)[C@@H]3[C@]4(OC(C)=O)CO[C@@H]4C[C@H](O)[C@@]3(C)C(=O)[C@H](O)C(=C1C)C2(C)C)[C@@H](NC(=O)OCC1CCC1)c1ccccc1 [Example 48] | 1000 (≈ 979 µM) | –
13 | CCOC(=O)[C@@H](N)CC(=O)OCC(=O)O[C@@H](C(=O)O[C@H]1C[C@@]2(O)[C@@H](OC(=O)c3ccccc3)[C@@H]3[C@]4(OC(C)=O)CO[C@@H]4C[C@H](O)[C@@]3(C)C(=O)[C@H](O)C(=C1C)C2(C)C)[C@@H](NC(=O)c1cccs1)c1ccccc1 [Example 41] | 700 (≈ 687 µM) | –
14 | COCCOC(=O)[C@@H](N)CC(=O)OCC(=O)O[C@@H](C(=O)O[C@H]1C[C@@]2(O)[C@@H](OC(=O)c3ccccc3)[C@@H]3[C@]4(OC(C)=O)CO[C@@H]4C[C@H](O)[C@@]3(C)C(=O)[C@H](O)C(=C1C)C2(C)C)[C@@H](NC(=O)OC(C)(C)C)c1ccc(F)cc1F [Example 57] | 5000 (≈ 4650 µM) | –
15 | CC(=O)O[C@@]12CO[C@@H]1C[C@H](O)[C@@]1(C)C(=O)[C@H](O)C3=C(C)[C@@H](OC(=O)[C@H](OC(=O)COC(=O)CCN)[C@@H](NC(=O)c4ccccc4)c4ccccc4)C[C@@](O)([C@@H](OC(=O)c4ccccc4)[C@H]21)C3(C)C [Example 38] | 1000 (≈ 1060 µM) | –
16 | CC(=O)O[C@@]12CO[C@@H]1C[C@H](O)[C@@]1(C)C(=O)[C@H](O)C3=C(C)[C@@H](OC(=O)[C@H](O)[C@@H](NC(=O)OC(C)(C)C)c4ccccc4)C[C@@](O)([C@@H](OC(=O)c4ccccc4)[C@H]21)C3(C)C [4α-acetoxy-2α-benzoyloxy-5β,20-epoxy-1β,7β,10β-trihydroxy-13α-[(2R,3S)-3-phenyl-3-(t-butoxycarbonylamino)-2-hydroxypropionyloxy]-tax-11-en-9-one] | – | antitumor activities [3]: excellent antitumor activities
17 | COCCOC(=O)[C@@H](N)CC(=O)OCC(=O)O[C@@H](C(=O)O[C@H]1C[C@@]2(O)[C@@H](OC(=O)c3ccccc3)[C@@H]3[C@]4(OC(C)=O)CO[C@@H]4C[C@H](O)[C@@]3(C)C(=O)[C@H](O)C(=C1C)C2(C)C)[C@@H](NC(=O)OC(C)(C)C)c1ccccc1 [Example 35, 4α-acetoxy-13α-{(2R,3S)-3-tert-butoxycarbonylamino-2-[((3S)-3-amino-3-(2-methoxyethoxycarbonyl)propionyloxy)acetoxy]-3-phenylpropionyloxy}-2α-benzoyloxy-5β,20-epoxy-1β,7β,10β-trihydroxytax-11-en-9-one.methanesulfonate] | 10000 | solubility [1, 4]: 10000 µg/mL; death (BDF1 mice): no case of death was observed
18 | CCOC(=O)[C@@H](N)CC(=O)OCC(=O)O[C@@H](C(=O)O[C@H]1C[C@@]2(O)[C@@H](OC(=O)c3ccccc3)[C@@H]3[C@]4(OC(C)=O)CO[C@@H]4C[C@H](O)[C@@]3(C)C(=O)[C@H](O)C(=C1C)C2(C)C)[C@@H](NC(=O)c1cc(OC)ccc1OC)c1ccccc1 [Example 43] | 500 (≈ 466 µM) | –
19 | CCOC(=O)[C@@H](N)CC(=O)OCC(=O)O[C@@H](C(=O)O[C@H]1C[C@@]2(O)[C@@H](OC(=O)c3ccccc3)[C@@H]3[C@]4(OC(C)=O)CO[C@@H]4C[C@H](O)[C@@]3(C)C(=O)[C@H](O)C(=C1C)C2(C)C)[C@@H](NC(=O)OCC1C(C)(C)C1(F)F)c1ccccc1 (some centres unmarked) [Example 45] | 600 (≈ 560 µM) | –
20 | CCOC(=O)[C@@H](N)CC(=O)OCC(=O)O[C@@H](C(=O)O[C@H]1C[C@@]2(O)[C@@H](OC(=O)c3ccccc3)[C@@H]3[C@]4(OC(C)=O)CO[C@@H]4C[C@H](O)[C@@]3(C)C(=O)[C@H](O)C(=C1C)C2(C)C)[C@@H](NC(=O)OCCOC)c1ccccc1 [Example 47] | > 10000 | –
21 | CCOC(=O)[C@@H](N)CC(=O)OCC(=O)O[C@@H](C(=O)O[C@H]1C[C@@]2(O)[C@@H](OC(=O)c3ccccc3)[C@@H]3[C@]4(OC(C)=O)CO[C@@H]4C[C@H](O)[C@@]3(C)C(=O)[C@H](O)C(=C1C)C2(C)C)[C@@H](NC(=O)c1ccco1)c1ccccc1 [Example 40] | 6000 (≈ 5980 µM) | –
22 | CCOC(=O)[C@@H](N)CC(=O)OCC(=O)O[C@@H](C(=O)O[C@H]1C[C@@]2(O)[C@@H](OC(=O)c3ccccc3)[C@@H]3[C@]4(OC(C)=O)CO[C@@H]4C[C@H](O)[C@@]3(C)C(=O)[C@H](OC(C)=O)C(=C1C)C2(C)C)[C@@H](NC(=O)c1ccccc1)c1ccccc1 [Example 59, 4α,10β-diacetoxy-13α-{(2R,3S)-3-benzoylamino-2-[((3S)-3-amino-3-ethoxycarbonylpropionyloxy)acetoxy]-3-phenylpropionyloxy}-2α-benzoyloxy-5β,20-epoxy-1β,7β-dihydroxytax-l 1-en-9-one.methanesulfonate] | 300 | –
23 | CC(=O)O[C@@]12CO[C@@H]1C[C@H](O)[C@@]1(C)C(=O)[C@H](O)C3=C(C)[C@@H](OC(=O)[C@H](OC(=O)COC(=O)CNC(=O)CN)[C@@H](NC(=O)OC(C)(C)C)c4ccccc4)C[C@@](O)([C@@H](OC(=O)c4ccccc4)[C@H]21)C3(C)C [Example 34] | 10000 (≈ 10200 µM) | –
